Assays:
[1] = target: T1, Sodium- and chloride-dependent neutral and basic amino acid transporter B(0+) (Homo sapiens, UniProt Q9UN76); test: Substrate activity at SLC6A14 (unknown origin) expressed in Xenopus laevis oocytes assessed as inhibition of glycine uptake incubated for 10 mins by HPLC/MS/MS analysis; assay type: cell-based, Oocyte
T1 sequence (Q9UN76 whole entry): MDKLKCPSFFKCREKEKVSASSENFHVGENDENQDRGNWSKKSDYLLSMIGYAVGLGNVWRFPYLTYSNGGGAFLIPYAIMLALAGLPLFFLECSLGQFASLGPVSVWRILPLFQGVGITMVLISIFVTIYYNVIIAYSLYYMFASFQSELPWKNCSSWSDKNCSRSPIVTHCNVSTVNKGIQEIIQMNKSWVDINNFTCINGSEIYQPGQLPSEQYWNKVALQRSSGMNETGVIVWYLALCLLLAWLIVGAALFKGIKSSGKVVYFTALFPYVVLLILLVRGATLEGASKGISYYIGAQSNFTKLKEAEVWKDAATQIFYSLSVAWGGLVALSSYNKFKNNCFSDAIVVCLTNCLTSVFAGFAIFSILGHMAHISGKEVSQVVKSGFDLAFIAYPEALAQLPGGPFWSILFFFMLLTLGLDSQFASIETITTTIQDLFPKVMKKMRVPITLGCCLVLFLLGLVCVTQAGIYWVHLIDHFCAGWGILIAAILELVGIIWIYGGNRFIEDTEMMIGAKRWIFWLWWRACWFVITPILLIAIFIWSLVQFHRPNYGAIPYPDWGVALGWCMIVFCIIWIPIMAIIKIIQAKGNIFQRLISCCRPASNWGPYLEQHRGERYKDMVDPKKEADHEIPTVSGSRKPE

[2] = target: T1, Sodium- and chloride-dependent neutral and basic amino acid transporter B(0+); test: Substrate activity at SLC6A14 (unknown origin) expressed in Xenopus laevis oocytes assessed as ABT0+ mediated drug uptake at 0.5 mM incubated for 10 mins by HPLC analysis; assay type: ADME, cell-based; settings: oocyte, 500 µM
[3] = Drug uptake in Xenopus laevis oocytes at 0.5 mM incubated for 10 mins by HPLC analysis; assay type: ADME, cell-based; settings: oocyte, 500 µM
[4] = target: T2, Solute carrier family 15 member 1 (Homo sapiens, UniProt P46059); test: Substrate activity at PEPT1 (unknown origin) expressed in MDCK cells assessed as inhibition of gly-sar uptake incubated for 10 mins by HPLC/MS/MS analysis; assay type: cell-based
T2 sequence (P46059 whole entry): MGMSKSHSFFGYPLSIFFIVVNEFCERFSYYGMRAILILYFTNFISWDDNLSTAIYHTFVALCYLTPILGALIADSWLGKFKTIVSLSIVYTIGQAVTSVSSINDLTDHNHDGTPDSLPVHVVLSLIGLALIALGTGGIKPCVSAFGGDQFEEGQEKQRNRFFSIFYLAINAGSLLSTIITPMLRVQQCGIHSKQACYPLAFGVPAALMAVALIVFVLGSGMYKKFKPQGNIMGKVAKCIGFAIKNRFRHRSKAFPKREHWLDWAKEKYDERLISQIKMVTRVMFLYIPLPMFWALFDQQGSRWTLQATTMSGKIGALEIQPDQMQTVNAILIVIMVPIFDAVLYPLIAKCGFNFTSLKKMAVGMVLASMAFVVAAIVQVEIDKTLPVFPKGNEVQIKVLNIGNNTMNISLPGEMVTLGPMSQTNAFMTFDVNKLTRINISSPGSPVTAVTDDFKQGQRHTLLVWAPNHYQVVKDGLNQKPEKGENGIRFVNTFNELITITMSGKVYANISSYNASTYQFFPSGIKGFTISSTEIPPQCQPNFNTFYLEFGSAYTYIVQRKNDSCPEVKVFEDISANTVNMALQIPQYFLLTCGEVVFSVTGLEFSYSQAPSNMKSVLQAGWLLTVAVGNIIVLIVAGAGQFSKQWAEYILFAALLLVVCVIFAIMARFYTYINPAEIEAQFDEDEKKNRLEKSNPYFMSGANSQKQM

[5] = target: T2, Solute carrier family 15 member 1; test: Substrate activity at PEPT1 (unknown origin) expressed in MDCK cells assessed as PEPT1 mediated drug uptake at 0.5 mM incubated for 10 mins by HPLC analysis; assay type: ADME, cell-based; settings: 500 µM
[6] = Drug uptake in MDCK cells incubated for 10 mins by HPLC analysis; assay type: ADME, cell-based, Canis lupus familiaris; settings: dog, 500 µM, dose 0.5 mM
[7] = Selectivity ratio of substrate activity at SLC6A14 (unknown origin) expressed in Xenopus laevis oocytes assessed as ABT0+ mediated drug uptake to drug uptake in Xenopus laevis oocytes; parameters: species or system Oocyte
[8] = Selectivity ratio of substrate activity at PEPT1 (unknown origin) expressed in MDCK cells assessed as PEPT1 mediated drug uptake to drug uptake in MDCK cells
[9] = Half life of compound in PBS buffer at pH 7.4 at 200 uM by HPLC analysis; assay type: physicochemical
[10] = Half life in rat plasma at 200 uM measured up to 120 mins by HPLC-MS/MS analysis; assay type: ADME, cell-free
[11] = system: thymidine phosphorylase; test: Half life of compound in thymidine phosphorylase buffer at 300 uM by HPLC analysis; assay type: physicochemical
[12] = Half life of compound in human ZR-75-1 cell homogenate; assay type: ADME, tissue-based
[13] = Half life of compound in human MIA PaCa-2 cell homogenate; assay type: ADME, tissue-based
[14] = Half life of compound in human MDA-MB-231 cell homogenate; assay type: ADME, tissue-based
[15] = system: ZR-75-1; test: Potency index, ratio of FUdR GI50 to test compound GI50 for growth inhibition of human ZR-75-1 cells; assay type: functional
[16] = system: MIA PaCa-2; test: Potency index, ratio of FUdR GI50 to test compound GI50 for growth inhibition of human MIA-PaCa-2 cells; assay type: functional
[17] = system: MDA-MB-231; test: Potency index, ratio of FUdR GI50 to test compound GI50 for growth inhibition of human MDA-MB-231 cells; assay type: functional

| SMILES | IC50 [1] | Drug uptake [2] | Drug uptake [3] | IC50 [4] | Drug uptake [5] | Drug uptake [6] | Ratio [7] | Ratio [8] | half-life at 200 µM [9] | half-life at 200 µM [10] | half-life at 300 µM [11] | half-life [12] | half-life [13] | half-life [14] | RatioGI50 [15] | RatioGI50 [16] | RatioGI50 [17] |
| --- | --- | --- | --- | --- | --- | --- | --- | --- | --- | --- | --- | --- | --- | --- | --- | --- | --- |
| CC(C)[C@H](N)C(=O)O[C@H]1C[C@H](n2cc(F)c(=O)[nH]c2=O)O[C@@H]1CO | 1630 µM | 1.56 nmol/mg/min | 0.39 nmol/mg/min | 1890 µM | 1.23 nmol/mg/min | 0.43 nmol/mg/min | 4 | 2.86 | 187 min | 65.3 min | 368 min | 9.2 min | 12.2 min | 14.9 min | 7 | 7 | 7 |
| N[C@@H](CC(=O)OC[C@H]1O[C@@H](n2cc(F)c(=O)[nH]c2=O)C[C@@H]1OC(=O)C[C@H](N)C(=O)O)C(=O)O | 2980 µM | 1.12 nmol/mg/min | 0.34 nmol/mg/min |  | < 0.04 nmol/mg/min | < 0.04 nmol/mg/min | 3.29 | 1 | 98.2 min | 56.1 min | 301 min | 16.2 min | 11.3 min | 9.3 min | 7 | 7 | 7 |
| N[C@@H](CCC(=O)O[C@H]1C[C@H](n2cc(F)c(=O)[nH]c2=O)O[C@@H]1CO)C(=O)O | 1840 µM | 1.04 nmol/mg/min | 0.28 nmol/mg/min | 13000 µM | < 0.04 nmol/mg/min | < 0.04 nmol/mg/min | 3.71 | 1 | 183 min | 97.4 min | 289 min | 7.9 min | 10.2 min | 8.3 min | 7 | 7 | 7 |
| N[C@@H](CC(=O)O[C@H]1C[C@H](n2cc(F)c(=O)[nH]c2=O)O[C@@H]1CO)C(=O)O | 1570 µM | 1.89 nmol/mg/min | 0.36 nmol/mg/min | 13900 µM | < 0.04 nmol/mg/min | < 0.04 nmol/mg/min | 5.25 | 1 | 179 min | 124 min | 278 min | 24.2 min | 32.1 min | 19.3 min | 7 | 7 | 7 |
| CC(C)[C@H](N)C(=O)OC[C@H]1O[C@@H](n2cc(F)c(=O)[nH]c2=O)C[C@@H]1OC(=O)[C@@H](N)C(C)C | 2010 µM | 1.03 nmol/mg/min | 0.37 nmol/mg/min | 2240 µM | 1.11 nmol/mg/min | 0.44 nmol/mg/min | 2.78 | 2.63 | 106 min | 37.8 min | 257 min | 6.7 min | 8.4 min | 10.1 min | 7 | 7 | 7 |
| N[C@@H](CCC(=O)OC[C@H]1O[C@@H](n2cc(F)c(=O)[nH]c2=O)C[C@@H]1OC(=O)CC[C@H](N)C(=O)O)C(=O)O | 2650 µM | 0.78 nmol/mg/min | 0.32 nmol/mg/min |  | < 0.04 nmol/mg/min | < 0.04 nmol/mg/min | 2.44 | 1 | 109 min | 67.9 min | 235 min | 14.3 min | 17.5 min | 21.1 min | 7 | 7 | 7 |
